Measurements as given in BindingDB's records for patent US11839613 (Idorsia Pharmaceuticals, 2023).

Columns and labels:
[1] = target: Prostaglandin E2 receptor EP2 subtype (Homo sapiens, UniProt P43116); assay: hEP2 cAMP Assay
Protocol: Cells are counted washed and resuspended in assay buffer (AB; HBSS, 20 mM HEPES, 0.2% BSA; 2 mM IBMX). […] Plate is pre-incubated 45 minutes at RT. […] Plate is incubated 30 minutes at RT.

[2] = target: Prostaglandin E2 receptor EP4 subtype (Homo sapiens, UniProt P35408); assay: hEP4 cAMP Assay
Sequence of Prostaglandin E2 receptor EP4 subtype (P35408 whole entry): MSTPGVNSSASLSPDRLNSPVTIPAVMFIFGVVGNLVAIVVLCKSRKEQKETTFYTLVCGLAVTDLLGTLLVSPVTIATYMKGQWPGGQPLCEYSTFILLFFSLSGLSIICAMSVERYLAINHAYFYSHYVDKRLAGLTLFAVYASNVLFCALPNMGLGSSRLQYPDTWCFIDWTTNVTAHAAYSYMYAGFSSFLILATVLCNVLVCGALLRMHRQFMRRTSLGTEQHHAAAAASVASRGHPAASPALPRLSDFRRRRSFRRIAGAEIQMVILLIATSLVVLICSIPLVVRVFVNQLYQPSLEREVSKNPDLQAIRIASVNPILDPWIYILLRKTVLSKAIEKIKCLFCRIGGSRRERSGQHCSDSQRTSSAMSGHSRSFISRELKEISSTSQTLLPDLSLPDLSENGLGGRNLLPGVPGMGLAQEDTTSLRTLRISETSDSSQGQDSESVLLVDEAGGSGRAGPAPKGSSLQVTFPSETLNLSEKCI
Protocol: Cells are counted washed and resuspended in assay buffer (AB; HBSS, 20 mM HEPES, 0.2% BSA; 2 mM IBMX). […] Plate is pre-incubated 45 minutes at RT. Subsequently, 2.5 microliters of PGE2 (final conc. 6 nM) are transferred into the assay plate. Plate is incubated 30 minutes at RT. […] For each compound concentration the percentage of cAMP compared to DMSO control value as average ±STDEV (each concentration is measured in duplicate) is calculated.

Sequence of Prostaglandin E2 receptor EP2 subtype (P43116 whole entry): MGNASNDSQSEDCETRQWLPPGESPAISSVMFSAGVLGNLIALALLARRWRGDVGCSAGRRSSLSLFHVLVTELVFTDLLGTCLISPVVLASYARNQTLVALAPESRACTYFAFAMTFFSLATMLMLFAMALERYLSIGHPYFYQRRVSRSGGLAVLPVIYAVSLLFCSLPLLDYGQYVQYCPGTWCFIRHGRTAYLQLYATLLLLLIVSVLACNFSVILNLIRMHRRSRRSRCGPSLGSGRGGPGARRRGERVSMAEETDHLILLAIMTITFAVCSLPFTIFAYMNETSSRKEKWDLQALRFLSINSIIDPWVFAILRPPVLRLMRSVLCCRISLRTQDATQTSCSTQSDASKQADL

SMILES	IC50 [1]	IC50 [2]
CCOc1cc2c(cc1CCNc1cc(-c3ccc(C(=O)O)c(CC(C)C)c3)ncn1)OCCO2 [US11839613, Example 417]	31 nM	240 nM
COc1cc(-c2cc(NCCc3ccc4sccc4c3F)ncn2)ccc1CC(=O)O [US11839613, Example 382]	675 nM	222 nM
COc1cc2c(c(C)c1CCNc1cc(-c3ccc(CC(=O)O)c(OC(F)F)c3)ncn1)OCCO2 [US11839613, Example 441]	21 nM	31 nM
CCCc1cc(-c2cc(NCCc3cc4c(cc3OCC)OCCO4)ncn2)ccc1CC(=O)O [US11839613, Example 402]	48 nM	131 nM
O=C(O)c1ccc(-c2cc(NCCc3ccc4sccc4c3F)ncn2)cc1OC1CCC1 [US11839613, Example 366]	30 nM	47 nM
O=C(O)c1ccc(-c2cc(NCCc3ccc4scc(Cl)c4c3)ncn2)cc1OC1CCC1 [US11839613, Example 430]	185 nM	40 nM
CCCc1cc(-c2cc(NCCc3cc4c(cc3OC)OCCO4)ncn2)ccc1C(C)C(=O)O (racemic) [US11839613, Example 401]	739 nM	236 nM
CCOc1cc(-c2cc(NCCc3cc4ccsc4c(F)c3OC)ncn2)ccc1C(=O)O [US11839613, Example 404]	27 nM	71 nM

More lines, in order of falling IC50 [1], values ahead:

IC50 [1]	IC50 [2]	SMILES
782 nM	89 nM	CC(C)Oc1cc(-c2cc(NCCc3ccc4sccc4c3F)ncn2)ccc1CC(=O)O [US11839613, Example 424]
626 nM	51 nM	CCCc1cc(-c2cc(NCCc3c(OC)cc4ccccc4c3C)ncn2)ccc1CC(=O)O [US11839613, Example 388]
577 nM	59 nM	COc1cc(-c2cc(NCCc3c(OC)cc4ccccc4c3C)ncn2)ccc1CC(=O)O [US11839613, Example 384]
505 nM	88 nM	CC(C)Cc1cc(-c2cc(NCCc3cc(F)c4sccc4c3)ncn2)ccc1C(=O)O [US11839613, Example 414]
220 nM	101 nM	CCOc1cc(-c2cc(NCCc3cc4ccsc4c(F)c3OC)ncn2)ccc1CC(=O)O [US11839613, Example 406]
131 nM	21 nM	O=C(O)c1ccc(-c2cc(NCCc3cc(F)c4sccc4c3)ncn2)cc1OC1CC1 [US11839613, Example 449]
124 nM	54 nM	CCCc1cc(-c2cc(NCCc3c(OC)cc4ccccc4c3C)ncn2)ccc1C(=O)O [US11839613, Example 380]
66 nM	38 nM	CSc1cc(-c2cc(NCCc3ccc4scc(Cl)c4c3)ncn2)ccc1C(=O)O [US11839613, Example 429]
57 nM	13 nM	CCOc1cc(-c2cc(NCCc3cc4c(cc3OC(F)F)OCCO4)ncn2)sc1C(=O)O [US11839613, Example 433]
29 nM	55 nM	CCOc1cc(-c2cc(NCCc3ccc4sccc4c3F)ncn2)ccc1C(=O)O [US11839613, Example 365]
10 nM	72 nM	COc1cc2c(c(C)c1CCNc1cc(-c3ccc(C(=O)O)c(OC(C)C)c3)ncn1)OCCO2 [US11839613, Example 432]
